Laboratory results: article PMC8491162, “Targeting the JAK/STAT Pathway: A Combined Ligand- and Target-Based Approach” (Journal of Chemical Information and Modeling, 2021)
Where a name gives a salt, the structure may show the parent alone. Read-outs that look alike come from different tables or passages of the source.

Experiments:
JAK2 [1] = target: T1, JAK2 (Homo sapiens, UniProt O60674); parameters: method as in earlier work; conditions: Figure 13; read-out: IC50 of commercially available JAK2 inhibitors; cited from earlier work
T1 construct: purchased BPS Bioscience

JAK2 [2] = target: T1, JAK2; assay: JAK2 activity assay (JAK2 assay kit, BPS Bioscience; Kinase Glo Max luminescence); format: biochemical
Method: According to the manufacturer’s instructions, the assay was performed in a white 96-well plate, in a total volume of 50 μL, adding a 5× kinase assay buffer, ATP (500 μM), protein tyrosine kinase substrate (10 mg/mL), water, tested molecules diluted in 0.1% DMSO solution, and JAK2 enzyme (2.5 ng/μL).
After 15 min of incubation at room temperature, the luminescence was measured by EnSpire Multimode Plate Reader (Perkin Elmer). All measurements were performed in triplicates for each compound, and the concentration range tested was 0.1–10 000 nM.

[3] = Solubility for in vitro testing; format: physicochemical; conditions: reason for not testing in vitro
SH-SY5Y cells = assay: MTT cell viability assay; format: cell-based, Human; conditions: 100 μM, after 5 or 24 h, vs vehicle control
Method: Human SH-SY5Y neuroblastoma cells purchased from ICLC-IST (Genoa, Italy), were cultured in Dulbecco’s modified Eagle’s medium (DMEM), supplemented with 10% (v/v) fetal bovine serum (FBS), 100 units/mL penicillin, 100 μg/mL streptomycin, and 2 mM glutamine. Cells were incubated at 37 °C in a humidified atmosphere containing 5% CO2 and were allowed to reach 80% confluence before starting treatments. All reagents employed for cell culture were purchased from Lonza (Milan, Italy).
Drugs effects on cell viability were measured using the MTT [3-(4,5-dimethylthiazol-2-yl)-2,5-diphenyltetrazolium bromide] assay.[40] All reagents were purchased from Sigma-Aldrich (Milan, Italy) unless otherwise indicated. Briefly, cells were plated on 24-well plates at a density of 3 × 10^4 cells/well and were grown to reach 80% confluence. Cells were treated with vehicle (DMEM containing 0.1% dimethyl sulfoxide (DMSO)) or drugs dissolved in vehicle at the final concentrations of 1, 10, or 100 μM. After 5 or 24 h, the culture medium was removed and replaced with fresh DMEM containing the MTT solution (0.5 mg/mL) and cells were incubated in the dark for 3 h at 37 °C. […] The optical densities (ODs) were then recorded using a microplate spectrophotometer (GENios Tecan, Austria) at 590 nm. Results were expressed as a percentage of OD values of drug-treated cell cultures compared to vehicle-treated ones.

[4] = 95% confidence limits in brackets, triplicates, read-out: IC50 in the enzymatic assay for JAK2 inhibition
[5] = as quoted in abstract and conclusions, read-out: IC50 against JAK2

T1 sequence (O60674 whole entry): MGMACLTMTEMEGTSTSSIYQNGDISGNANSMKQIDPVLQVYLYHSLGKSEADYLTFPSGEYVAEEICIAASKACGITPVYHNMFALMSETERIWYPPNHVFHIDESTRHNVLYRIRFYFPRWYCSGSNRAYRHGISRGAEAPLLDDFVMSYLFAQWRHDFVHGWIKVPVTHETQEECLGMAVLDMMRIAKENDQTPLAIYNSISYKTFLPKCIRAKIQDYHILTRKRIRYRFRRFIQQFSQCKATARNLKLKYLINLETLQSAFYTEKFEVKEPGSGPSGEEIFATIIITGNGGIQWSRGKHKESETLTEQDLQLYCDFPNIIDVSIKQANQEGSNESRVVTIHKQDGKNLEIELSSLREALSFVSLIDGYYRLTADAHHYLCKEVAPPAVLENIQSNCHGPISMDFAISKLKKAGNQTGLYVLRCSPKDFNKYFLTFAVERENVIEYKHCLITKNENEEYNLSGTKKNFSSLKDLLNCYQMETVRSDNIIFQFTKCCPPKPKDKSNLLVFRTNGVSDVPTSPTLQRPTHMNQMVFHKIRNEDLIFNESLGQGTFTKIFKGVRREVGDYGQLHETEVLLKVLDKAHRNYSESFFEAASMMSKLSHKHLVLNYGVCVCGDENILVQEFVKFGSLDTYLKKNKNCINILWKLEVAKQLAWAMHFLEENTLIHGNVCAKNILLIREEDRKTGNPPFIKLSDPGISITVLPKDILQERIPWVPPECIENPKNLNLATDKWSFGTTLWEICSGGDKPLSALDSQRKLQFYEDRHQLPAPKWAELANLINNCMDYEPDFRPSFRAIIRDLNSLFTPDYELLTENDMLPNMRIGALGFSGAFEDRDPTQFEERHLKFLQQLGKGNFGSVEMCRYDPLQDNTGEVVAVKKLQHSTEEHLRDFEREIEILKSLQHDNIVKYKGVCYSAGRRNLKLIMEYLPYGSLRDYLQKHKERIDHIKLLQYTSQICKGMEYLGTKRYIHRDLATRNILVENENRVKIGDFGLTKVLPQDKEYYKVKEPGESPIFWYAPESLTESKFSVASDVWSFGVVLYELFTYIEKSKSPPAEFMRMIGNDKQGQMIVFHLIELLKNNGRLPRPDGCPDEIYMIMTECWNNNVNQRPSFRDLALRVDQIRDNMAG

SMILES | IC50 (JAK2 [2]; [4]) [nM] | IC50 (JAK2 [1]) [nM] | further results
CCCC1(CCC)CCC2(CCN(CCCN(CC)CC)C2)CC1 [Atiprimod dihydrochloride] |  | 400 | 
CC(=O)Nc1cc(Oc2ccc3c(nc(Nc4ccc(F)cc4F)n3C)c2C)ccn1 [CHZ868] |  | 170 | 
CC(=O)c1oc2ccccc2c1N [Compound 1] | > 10000 |  | 
COCCNC(=O)c1cc2c(=O)n3cccc(C)c3nc2n(Cc2ccco2)c1=N [Compound 2] |  |  | Solubility [3]: solubility problems
CC(CCc1ccccn1)(CCc1ccccn1)C(=O)c1ccccc1 [NSC 42834] |  | 15000 | 
C[C@H](NC(=O)/C(C#N)=C/c1cccc(Br)n1)c1ccccc1 [WP1066] |  | 2300 | 

Further lines, with some results ahead:

IC50 (JAK2 [2]; [4]) [nM] | SMILES | IC50 (JAK2 [1]) [nM] | further results
> 10000 | COc1cccc(C2C(C#N)=C(N)Oc3[nH]nc(C)c32)c1 (stereo not shown) [Compound 3] |  | 
807 | O=C1C2C3C=CC(CO)(O3)C2C(=O)N1c1cccc([N+](=O)[O-])c1 (stereo not shown) [Compound 4] |  | IC50 (JAK2 [2]; [5]): 810 nM
> 10000 | Cc1n[nH]c(C)c1C(=O)CC1(O)C(=O)N(Cc2ccccc2)c2ccccc21 (stereo not shown) [Compound 5] |  | 
> 10000 | O=C(O)CSc1nnc2n1CCCN2 [Compound 6] |  | Cell viability (MTT) (SH-SY5Y cells): significant decrease
637 | NS(=O)(=O)c1ccc(NC(=O)Cn2cnc3scc(-c4ccco4)c3c2=O)cc1 [Compound 7] |  | IC50 (JAK2 [2]; [5]): 640 nM
> 10000 | COC(=O)C1=C(C)NC(C)=C(C(=O)OCCN2CCN(C(=O)c3ccco3)CC2)C1c1cccc([N+](=O)[O-])c1 (stereo not shown) [Compound 8] |  | Cell viability (MTT) (SH-SY5Y cells): significant decrease
